In experiment [1] the target is T1, purified recombinantly expressed human SSAO (Homo sapiens, UniProt Q16853).
T1 construct: made in house
T1 sequence (Q16853 1-763): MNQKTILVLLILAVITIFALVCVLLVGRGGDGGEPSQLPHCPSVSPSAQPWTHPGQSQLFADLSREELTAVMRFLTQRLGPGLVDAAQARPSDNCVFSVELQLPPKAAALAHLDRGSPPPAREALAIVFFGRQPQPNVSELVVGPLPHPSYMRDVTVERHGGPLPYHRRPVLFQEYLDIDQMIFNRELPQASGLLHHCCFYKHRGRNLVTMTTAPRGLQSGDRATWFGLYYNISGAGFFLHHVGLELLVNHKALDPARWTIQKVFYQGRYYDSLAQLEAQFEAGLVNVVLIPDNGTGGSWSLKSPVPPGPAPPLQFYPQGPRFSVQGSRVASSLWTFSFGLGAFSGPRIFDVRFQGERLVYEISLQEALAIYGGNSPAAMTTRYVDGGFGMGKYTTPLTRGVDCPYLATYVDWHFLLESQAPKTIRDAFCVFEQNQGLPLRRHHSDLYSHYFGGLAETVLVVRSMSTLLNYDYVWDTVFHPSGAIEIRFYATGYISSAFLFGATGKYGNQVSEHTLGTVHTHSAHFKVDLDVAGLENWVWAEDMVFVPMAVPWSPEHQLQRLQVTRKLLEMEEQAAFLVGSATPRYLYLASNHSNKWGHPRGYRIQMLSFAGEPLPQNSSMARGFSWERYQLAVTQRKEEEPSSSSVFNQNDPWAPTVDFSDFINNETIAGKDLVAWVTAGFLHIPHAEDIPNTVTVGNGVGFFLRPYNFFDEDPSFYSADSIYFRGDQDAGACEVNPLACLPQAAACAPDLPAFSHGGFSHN
The experiment can be described thus: SSAO enzyme inhibition assay (benzylamine substrate; hydrogen peroxide/HRP-coupled or 14C-aldehyde detection). Format: biochemical. Particulars: SSAO inhibitory activity; recombinant human SSAO, RT. The procedure: All primary assays were performed at RT. with purified recombinantly expressed human SSAO. Enzyme was prepared essentially as described in Öhman et al. (Protein Expression and Purification 46 (2006) 321-331). In addition, secondary- and selectivity assays were performed using SSAO prepared from various tissues or purified rat recombinant SSAO. The enzyme activity was assayed with benzylamine as substrate by measuring either benzaldehyde production, using ^14C-labeled substrate, or by utilizing the production of hydrogen peroxide in a horseradish peroxidase (HRP) coupled reaction. Briefly, test compounds were dissolved in dimethyl sulfoxide (DMSO) to a concentration of 10 mM. Dose-response measurements were assayed by either creating 1:10 serial dilutions in DMSO to produce a 7 point curve or by making 1:3 serial dilutions in DMSO to produce 11 point curves. The top concentrations were adjusted depending on the potency of the compounds and subsequent dilution in reaction buffer yielded a final DMSO concentration ≤2%.
In a horseradish peroxidase (HRP) coupled reaction, hydrogen peroxide oxidation of 10-acetyl-3,7-dihydroxyphenoxazine produced resorufin, which is a highly fluorescent compound (Zhout and Panchuk-Voloshina. Analytical Biochemistry 253 (1997) 169-174; Amplex® Red Hydrogen Peroxide/peroxidase Assay kit, Invitrogen A22188). Enzyme and compounds in 50 mM sodium phosphate, pH 7.4 were set to pre-incubate in flat-bottomed microtiter plates for approximately 15 min before initiating the reaction by addition of a mixture of HRP, benzylamine and Amplex reagent. Benzylamine concentration was fixed at a concentration corresponding to the Michaelis constant, determined using standard procedures. Fluorescence intensity was then measured at several time points during 1-2 h, exciting at 544 nm and reading the emission at 590 nm. For the human SSAO assay final concentrations of the reagents in the assay wells were: SSAO enzyme 1 ug/mL, benzylamine 100 uM, Amplex reagent 20 uM, HRP 0.1 U/mL and varying concentrations of test compound. The inhibition was measured as % decrease of the signal compared to a control without inhibitor (only diluted DMSO). The background signal from a sample containing no SSAO enzyme was subtracted from all data points. Data was fitted to a four parameter logistic model and IC50 values were calculated using the GraphPad Prism 4 or XLfit 4 programs.
SSAO activity was assayed using […] benzylamine and analysed by measuring radioactive benzaldehyde. In a white 96-well optiplate (Packard), 20 uL of diluted test compound was pre-incubated at RT with 20 uL SSAO enzyme for approximately 15 min with continuous agitation. All dilutions were made with PBS. The reaction was initiated by adding 20 uL of the benzylamine substrate solution containing Benzylamine hydrochloride (CFA589, GE Healthcare). The plate was incubated for 1 h as above after which the reaction was stopped by acidification (10 uL 1M aq HCl). Then 90 uL Micro Scint-E solution (Perkin-Elmer) was added to each well and the plate was continuously mixed for 15 min. Phase separation occurred instantly and activity was read in a Topcount scintillation counter (Perkin-Elmer). In the final reaction well, the human recombinant SSAO concentration was 10 ug/mL. In order to optimize sensitivity, the substrate concentration was decreased as compared to the HRP coupled assay in order to get a higher fraction of radioactive product. In the human SSAO assay, benzylamine concentration was 40 uM (0.2uCi/mL). Data was analysed as above.

Experiment [2] concerns the target T2, human ether a go-go related gene (hERG) K+ channel (Homo sapiens, UniProt Q12809).
T2 construct: Chinese Hamster Lung cell line stably expressing the full length hERG channel; expressed in transfected cells; host or cells: Chinese Hamster Lung cell line
The experiment can be described thus: hERG assay, IonWorks patch clamp electrophysiology. Particulars: Chinese Hamster Lung cell line stably expressing hERG; max assay concentration 11 uM. Format: cell-based. The protocol:
Compounds of the invention were tested for inhibition of the human ether a go-go related gene (hERG) K^+ channel using IonWorks patch clamp electrophysiology. 8 Point concentration-response curves were generated on two occasions using 3-fold serial dilutions from the maximum assay concentration (11 uM). Electrophysiological recordings were made from a Chinese Hamster Lung cell line stably expressing the full length hERG channel. Single cell ion currents were measured in the perforated patch clamp configuration (100 ug/mL amphoterocin) at RT using an IonWorks Quattro instrument. The internal solution contained 140 mM KCl, 1 mM MgCl2, 1 mM EGTA and 20 mM HEPES and was buffered to pH 7.3. The external solution contained 138 mM NaCl, 2.7 mM KCl, 0.9 mM CaCl2, 0.5 mM MgCl2, 8 mM Na2HPO4 and 1.5 mM KH2PO4, and was buffered to pH 7.3. Cells were clamped at a holding potential of […] for 30 s and then stepped to +40 mV for 1 s. This was followed by a hyperpolarising step of 1 s to […] to evoke the hERG tail current. This sequence was repeated 5 times at a frequency of 0.25 Hz. Currents were measured from the tail step at the 5th pulse, and referenced to the holding current. Compounds were incubated for 6-7 min prior to a second measurement of the hERG signal using an identical pulse train. A minimum of 17 cells were required for each pIC50 curve fit. A control compound (quinidine) was used (see Table 13 below).

T2 sequence (Q12809 whole entry): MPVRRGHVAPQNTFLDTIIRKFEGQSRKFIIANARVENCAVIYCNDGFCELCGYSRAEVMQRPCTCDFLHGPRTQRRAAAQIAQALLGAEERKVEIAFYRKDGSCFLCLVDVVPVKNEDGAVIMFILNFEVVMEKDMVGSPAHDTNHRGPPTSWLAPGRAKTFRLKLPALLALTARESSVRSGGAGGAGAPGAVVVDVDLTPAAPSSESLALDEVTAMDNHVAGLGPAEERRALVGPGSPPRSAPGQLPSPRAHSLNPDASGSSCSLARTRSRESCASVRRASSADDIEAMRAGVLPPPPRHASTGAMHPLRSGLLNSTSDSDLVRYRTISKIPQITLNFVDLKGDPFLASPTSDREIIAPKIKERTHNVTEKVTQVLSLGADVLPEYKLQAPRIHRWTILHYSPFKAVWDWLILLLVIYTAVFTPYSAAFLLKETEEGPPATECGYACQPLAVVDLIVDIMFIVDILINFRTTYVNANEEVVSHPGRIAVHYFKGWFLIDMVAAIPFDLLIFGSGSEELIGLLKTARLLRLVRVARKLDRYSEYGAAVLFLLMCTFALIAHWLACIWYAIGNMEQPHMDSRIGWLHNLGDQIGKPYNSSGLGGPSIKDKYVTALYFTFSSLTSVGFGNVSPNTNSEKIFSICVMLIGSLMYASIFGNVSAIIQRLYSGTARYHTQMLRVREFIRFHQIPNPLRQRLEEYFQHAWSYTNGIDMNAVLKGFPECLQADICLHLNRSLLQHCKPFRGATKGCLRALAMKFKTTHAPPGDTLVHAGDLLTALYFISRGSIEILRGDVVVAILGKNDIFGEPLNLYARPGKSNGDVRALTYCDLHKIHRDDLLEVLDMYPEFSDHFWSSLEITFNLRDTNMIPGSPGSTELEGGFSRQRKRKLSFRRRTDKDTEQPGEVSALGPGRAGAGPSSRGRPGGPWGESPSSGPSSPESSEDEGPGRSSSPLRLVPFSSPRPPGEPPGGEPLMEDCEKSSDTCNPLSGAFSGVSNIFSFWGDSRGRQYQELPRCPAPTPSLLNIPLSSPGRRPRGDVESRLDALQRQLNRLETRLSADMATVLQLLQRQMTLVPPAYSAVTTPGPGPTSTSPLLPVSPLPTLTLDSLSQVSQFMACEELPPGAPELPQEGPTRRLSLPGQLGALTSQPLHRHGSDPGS

As usually defined, the IC50 is the concentration that inhibits the measured activity by half. `Cc1ccc(-n2c(-c3ccc(N4CCCC4)nc3)nc3ccncc32)cn1` [Compound 18, 5-[3-(6-Methylpyridin-3-yl)-3H-imidazo[4,5-c]pyridin-2-yl]-2-(pyrrolidin-1-yl)pyridine]: the IC50 was below 50 nM in experiment [1] and above 10000 nM in experiment [2].

Turning to `Cc1ccc(-n2c(-c3ccc(NC4CCOCC4)nc3)nc3ccncc32)cc1` [Compound 10, 5-[3-(4-Methylphenyl)-3H-imidazo[4,5-c]pyridin-2-yl]-N-(oxan-4-yl)pyridin-2-amine], the IC50 was below 50 nM in experiment [1] and above 10000 nM in experiment [2].

On to `Cc1ccc(-n2c(-c3ccc(NC4CC4)nc3)nc3ccncc32)cc1` [Compound 17, N-Cyclopropyl-5-[3-(4-methylphenyl)-3H-imidazo[4,5-c]pyridin-2-yl]pyridin-2-amine], for which the IC50 is below 50 nM in experiment [1] and above 10000 nM in experiment [2].

Turning to `Cc1cc(N2CCOCC2)ncc1-c1nc2ccncc2n1-c1ccc(Cl)cn1` [Compound 12, 4-{5-[3-(5-Chloropyridin-2-yl)-3H-imidazo[4,5-c]pyridin-2-yl]-4-methylpyridin-2-yl}morpholine], the IC50 was below 50 nM in experiment [1] and above 10000 nM in experiment [2].

As to `Cc1ccc(-n2c(-c3ccc(NCCN4CCOCC4)nc3)nc3ccncc32)cc1` [Compound 21, 5-[3-(4-Methylphenyl)-3H-imidazo[4,5-c]pyridin-2-yl]-N-[2-(morpholin-4-yl)ethyl]pyridin-2-amine], the IC50 in experiment [1] is below 50 nM; in experiment [2], above 10000 nM.

On to `Fc1ccc(-n2c(-c3ccc(NC4CCOCC4)nc3)nc3ccncc32)cc1` [Compound 15, 5-[3-(4-Fluorophenyl)-3H-imidazo[4,5-c]pyridin-2-yl]-N-(oxan-4-yl)pyridin-2-amine], for which the IC50 in experiment [1] was below 50 nM; in experiment [2], above 10000 nM.

As for `Cc1ccc(-n2c(-c3ccc(N4CCC(F)CC4)nc3)nc3ccncc32)cn1` [Compound 19, 2-(4-Fluoropiperidin-1-yl)-5-[3-(6-methylpyridin-3-yl)-3H-imidazo[4,5-c]pyridin-2-yl]pyridine], the IC50 in experiment [1] is below 50 nM; in experiment [2] it was above 10000 nM.

With `Fc1ccc(-n2c(-c3ccc(N4CCOCC4)nc3)nc3ccncc32)nc1` [Compound 1, 4-{5-[3-(5-Fluoropyridin-2-yl)-3H-imidazo[4,5-c]pyridin-2-yl]pyridin-2-yl}morpholine], the IC50 in experiment [1] fell in the range of 50 to 200 nM.

Consider `Cc1ccc(-n2c(-c3ccc(NC4CCOCC4)cc3)nc3ccncc32)cn1` [Compound 35, N-{4-[3-(6-Methylpyridin-3-yl)-3H-imidazo[4,5-c]pyridin-2-yl]phenyl}oxan-4-amine], for which, in experiment [1], the IC50 lay in the range of 200 to 1200 nM.

As to `Cc1cc(N2CCOCC2)ncc1-c1nc2ccncc2n1-c1ccc(F)cc1F` [Compound 2, 4-{5-[3-(2,4-Difluorophenyl)-3H-imidazo[4,5-c]pyridin-2-yl]-4-methylpyridin-2-yl}morpholine], in experiment [1], the IC50 is below 50 nM.

Take `Cc1ccc(-n2c(-c3ccc(N4CCOCC4)cc3)nc3ccncc32)nc1` [Compound 30, 4-{4-[3-(5-Methylpyridin-2-yl)-3H-imidazo[4,5-c]pyridin-2-yl]phenyl}morpholine]: the IC50 in experiment [1] lay within 200 to 1200 nM.

As to `Cc1ccc(-n2c(-c3cnc(N4CCOCC4)cc3C)nc3ccncc32)nc1` [Compound 13, 4-{4-Methyl-5-[3-(5-methylpyridin-2-yl)-3H-imidazo[4,5-c]pyridin-2-yl]pyridin-2-yl}morpholine], the IC50 in experiment [1] lay in the range of 50 to 200 nM.

Turning to `Fc1ccc(-n2c(-c3cnc(N4CCCC4)nc3)nc3ccncc32)nc1` [Compound 27, 5-[3-(5-Fluoropyridin-2-yl)-3H-imidazo[4,5-c]pyridin-2-yl]-2-(pyrrolidin-1-yl)pyrimidine], the IC50 in experiment [1] lay in the range of 50 to 200 nM.
